Source: US8420144B2, “Kokumi-imparting agent, method of using, and compositions containing same” (Ajinomoto Co., Inc., priority 2005, dated 2013)

Legend:
[1] = Quantitative sensory evaluation test: imparting kokumi to consomme soup; type: in vivo, human; conditions: n=12, 0 control, 3 intense, 5 extremely intense
Procedure: The intensity of activity for imparting kokumi to consomme soup of each peptide having confirmed calcium receptor activation activity was measured by a quantitative sensory evaluation test, performed as follows: Consomme soup was prepared by dissolving consomme soup powder (35% of sodium chloride, 18% of sodium glutamate, 0.2% of inosine monophosphate, 0.3% of white pepper powder, 0.5% of black pepper powder, 8.0% of beef extract powder, 3.0% of white wine powder, 2.0% of celery powder, 8.0% of Chinese cabbage extract powder, 2.5% of onion extract powder, […]) at a concentration of 5 g/dl. To this consomme soup, samples of either γ-Glu-Cys-Gly (glutathione) or γ-Glu-Val-Gly was added to a concentration of 0.0001 to 1 g/dl, and the intensity of the kokumi-imparting activity was measured for each sample. The consomme soup with the samples that became acidic after dissolution of the samples with respect to the consomme soup without the samples was adjusted with NaOH to pH not lower or higher by 0.2 than pH of the consomme soup without the samples before use. Sensory evaluation scores were used for evaluation as follows: 0 points for the control sample, 3 points for intense activity as compared to the control, and 5 points for extremely intense activity as compared to the control, and the test was performed with n=12.

[2] = Quantitative sensory evaluation test of kokumi-imparting activity in water with sodium glutamate, inosine monophosphate and sodium chloride; type: in vivo, human; set-up: key: *: Unmeasurable: Kokumi-imparting activity was too strong and could not be measured by the sensory evaluation
Procedure: Sample solutions that became acidic after dissolution of the samples were adjusted to pH 6.8 to 7.2 with NaOH before use. Sensory evaluation scores were used for evaluation based on the control sample (0 points) and the glutathione sample (3 points), and the test was performed with n=3.
The sample solutions that became acidic after dissolution of the samples were adjusted to pH 6.8 to 7.2 with NaOH before use. Sensory evaluation scores were used for evaluation based on the control sample (0 points) and the glutathione sample (3 points), and the test was performed with n=5.
Sample solutions that became acidic after dissolution of the samples were adjusted to pH 6.8 to 7.2 with NaOH before use. Sensory evaluation scores were used for evaluation based on the control sample (0 points) and the glutathione sample (3 points), and the test was performed with n=12.

[3] = Table 6, 0.01 g/dl, n=5, control 0, glutathione 3 points
[4] = Table 7, 0.01 g/dl, n=12, control 0, glutathione 3 points
[5] = Table 5, 0.1 g/dl, n=3, control 0, glutathione 3 points
[6] = Table 6, 0.1 g/dl, n=5, control 0, glutathione 3 points
[7] = Table 7, 0.1 g/dl, n=12, control 0, glutathione 3 points

Structure (SMILES): CC(C)[C@H](NC(=O)CC[C@H](N)C(=O)O)C(=O)NCC(=O)O [γ-Glu-Val-Gly]
- Intensity of kokumi: Aftertaste ([1]; 0.0005 g/dl): 3.0 points
- Intensity of kokumi: First and middle taste ([1]; 0.0005 g/dl): 2.5 points
- Intensity of kokumi: Aftertaste ([1]; 0.001 g/dl): 3.5 points
- Intensity of kokumi: First and middle taste ([1]; 0.001 g/dl): 3.0 points
- Intensity of kokumi: Aftertaste ([1]; 0.01 g/dl): 5.0 points
- Intensity of kokumi: First and middle taste ([1]; 0.01 g/dl): 5.0 points
- Intensity of kokumi: Aftertaste ([1]; 0.1 g/dl): 5.0 points
- Intensity of kokumi: First and middle taste ([1]; 0.1 g/dl): 5.0 points
- Intensity of kokumi: Aftertaste [2, 3]: 3.0 points
- Intensity of kokumi: First and middle taste [2, 3]: 3.0 points
- Intensity of kokumi: Aftertaste ([2]; Table 6, 0.1 g/dl, n=5): *
- Intensity of kokumi: First and middle taste ([2]; Table 6, 0.1 g/dl, n=5): *
- Intensity of kokumi: Aftertaste [2, 4]: 3.0 points
- Intensity of kokumi: First and middle taste [2, 4]: 3.0 points

Structure (SMILES): N[C@@H](CCC(=O)N[C@@H](CS)C(=O)NCC(=O)O)C(=O)O [γ-Glu-Cys-Gly, reference compound]
- Intensity of kokumi: Aftertaste ([1]; 0.01 g/dl): 3.0 points
- Intensity of kokumi: First and middle taste ([1]; 0.01 g/dl): 3.0 points
- Intensity of kokumi: Aftertaste [2, 5]: 3.0 points
- Intensity of kokumi: First and middle taste [2, 5]: 3.0 points
- Intensity of kokumi: Aftertaste [2, 6]: 3.0 points
- Intensity of kokumi: First and middle taste [2, 6]: 3.0 points
- Intensity of kokumi: Aftertaste [2, 7]: 3.0 points
- Intensity of kokumi: First and middle taste [2, 7]: 3.0 points
